Laboratory results as given in patent US12252524B2, “GIP/GLP1 co-agonist compounds” (Eli Lilly and Company, priority 2018, dated 2025).
Numbered stars: 1 amine (or outer) side, 2 acyl side, 3 side chain; on linkers, the order of the positions; unused ones are H or OH. Square brackets hold non-standard residues; d marks the D form. Side chains are listed from the residue outwards. Peptide text beside a SMILES is read from it. * marks the point of attachment. C20 diacid = O=C(O)CCCCCCCCCCCCCCCCCCC(=O)*; γGlu = O=C(O)[C@H](CCC(=O)[*:2])N[*:1]; αMeL = CC(C)C[C@](C)(N)C(=O)O; Orn = NCCC[C@H](N)C(=O)O; AEEA = NCCOCCOCC(=O)O; Aib = CC(C)(N)C(=O)O

How the values were obtained:
human GLP-1R [1] = biological target: T1, human GLP-1R (Homo sapiens, UniProt P43220); experiment: GLP-1R CHO cell β-arrestin recruitment assay; assay type: cell-based; design: host or cells: CHO-K1 PathHunter cells, assay-ready frozen; details: for EC50: CHO-K1 cells, PathHunter β-arrestin-2 recruitment, 0.1% casein, read-out: hGLP1R B-Arrestin2 Rel EC50 uM (SEM, n); for hGLP1R B-Arrestin2 % Top: normalized to GLP-1 maximum control
In short: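 Peptide-induced β-arrestin-2 recruitment measured by enzyme-fragment complementation luminescence after 90 min at 37 °C plus 60 min detection at RT.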

human GIP receptor = biological target: T2, human GIP receptor (Homo sapiens, UniProt P48546); experiment: [125I]-GIP binding (SPA), human GIP receptor; details: read-out: hGIPR Ki, nM (SEM, n)
T2 construct: expressed in transfected cells; crude membranes
T2 sequence (P48546 22-466): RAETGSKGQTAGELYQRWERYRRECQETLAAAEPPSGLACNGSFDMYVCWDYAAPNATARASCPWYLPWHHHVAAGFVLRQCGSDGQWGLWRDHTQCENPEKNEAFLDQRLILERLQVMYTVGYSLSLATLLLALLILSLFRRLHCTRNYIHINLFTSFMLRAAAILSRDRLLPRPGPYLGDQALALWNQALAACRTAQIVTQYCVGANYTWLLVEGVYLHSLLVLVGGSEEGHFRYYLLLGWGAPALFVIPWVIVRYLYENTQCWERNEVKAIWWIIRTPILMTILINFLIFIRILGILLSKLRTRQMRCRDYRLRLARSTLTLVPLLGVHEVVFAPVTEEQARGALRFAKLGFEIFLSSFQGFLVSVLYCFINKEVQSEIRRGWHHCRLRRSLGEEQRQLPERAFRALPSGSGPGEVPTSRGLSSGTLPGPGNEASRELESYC

human GLP-1R [2] = biological target: T1, human GLP-1R; experiment: GLP-1R HEK293 cell membrane [35S]GTPγS binding assay; assay type: biochemical; design: expressed in transfected cells; host or cells: HEK293 cells expressing human GLP-1R; membranes; details: HEK293 cell membranes expressing human GLP-1R, [35S]GTPγS binding; read-out: hGLP1R GTPgS Rel EC50 nM (SEM, n)
In short: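 Agonist-driven Gαs activation read as [35S]GTPγS ([…]) binding to receptor-expressing HEK293 membranes, 30 min at room temperature, pH 7.4. Detection by anti-Gαs immunocapture on scintillation beads; EC50 derived from four-parameter logistic concentration-response fit.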

[3] = biological target: T3, gastric inhibitory peptide receptor (GIPR) (Homo sapiens, UniProt P48546); experiment: cAMP pharmacological functional assay in presence of casein, hGIPR; assay type: cell-based; details: HEK293 cells expressing hGIPR, 0.1% Casein, geometric mean; read-out: hGIPR cAMP Rel EC50 nM (SEM, n)
T3 sequence (P48546 22-466): T2 sequence (P48546 22-466)

human Gcg receptor = biological target: T4, human Gcg receptor (Homo sapiens, UniProt P47871); experiment: [125I]-Glucagon binding (SPA), human Gcg receptor; details: read-out: hGLcgR Ki, nM (SEM, n)
T4 construct: expressed in transfected cells; crude membranes
In short: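 Crude membranes from cells expressing the receptor, prepared by hypotonic lysis in 50 mM Tris HCl pH 7.5 with protease inhibitors, homogenization and differential centrifugation, were used in a WGA-bead SPA. Binding buffer: 25 mM HEPES pH 7.4, 2.5 mM CaCl2, 1 mM MgCl2, bacitracin, Tween-20.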

human GLP-1R [4] = biological target: T1, human GLP-1R; experiment: [125I]-GLP-1 binding (SPA), human GLP-1 receptor; design: expressed in transfected cells; crude membranes; details: read-out: hGLP1R Ki, (nM) (SEM, n)
In short: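 Crude-membrane binding assay; one membrane prep included 1 mM MgCl2 and 25 units/ml DNAse I during lysis. Assay buffer at pH 7.4 contains 0.1% (w/v) bacitracin and 0.003% (w/v) TWEEN-20. Ki is reported as geometric mean.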

[5] = biological target: human GLP-1 receptor (GLP-1R) (Homo sapiens, UniProt P43220); experiment: cAMP pharmacological functional assay in presence of casein, hGLP-1R; assay type: cell-based; details: HEK293 cells expressing hGLP-1R, 0.1% Casein, geometric mean; read-out: hGLP1R cAMP Rel EC50 nM (SEM, n)
Sequence of human GLP-1 receptor (GLP-1R) (P43220 24-463): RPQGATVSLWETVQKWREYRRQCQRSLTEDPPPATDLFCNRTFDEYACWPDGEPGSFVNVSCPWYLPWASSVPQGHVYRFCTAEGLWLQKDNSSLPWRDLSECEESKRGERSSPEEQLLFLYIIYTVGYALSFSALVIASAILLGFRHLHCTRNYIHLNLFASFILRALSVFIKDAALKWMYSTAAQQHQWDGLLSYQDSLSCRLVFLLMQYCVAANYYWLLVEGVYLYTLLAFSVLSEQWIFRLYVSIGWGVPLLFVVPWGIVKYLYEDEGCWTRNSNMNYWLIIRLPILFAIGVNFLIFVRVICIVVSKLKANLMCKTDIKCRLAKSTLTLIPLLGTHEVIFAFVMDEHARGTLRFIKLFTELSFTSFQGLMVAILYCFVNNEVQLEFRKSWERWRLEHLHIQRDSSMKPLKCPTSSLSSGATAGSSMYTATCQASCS

T4 sequence (P47871 26-477): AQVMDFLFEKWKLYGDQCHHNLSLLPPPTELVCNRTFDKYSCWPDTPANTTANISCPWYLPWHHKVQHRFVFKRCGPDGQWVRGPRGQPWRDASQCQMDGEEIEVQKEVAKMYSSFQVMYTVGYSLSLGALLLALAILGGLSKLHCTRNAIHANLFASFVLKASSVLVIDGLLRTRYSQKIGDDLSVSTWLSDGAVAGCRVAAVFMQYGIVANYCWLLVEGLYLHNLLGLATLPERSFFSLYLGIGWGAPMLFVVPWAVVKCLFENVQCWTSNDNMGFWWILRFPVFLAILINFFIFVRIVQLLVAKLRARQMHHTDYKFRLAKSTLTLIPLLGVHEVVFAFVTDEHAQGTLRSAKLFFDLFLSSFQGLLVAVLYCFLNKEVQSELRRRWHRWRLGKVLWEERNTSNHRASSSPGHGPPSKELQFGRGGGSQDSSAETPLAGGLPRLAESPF
T1 sequence (P43220 24-463): as the sequence (P43220 24-463) above

| SMILES | EC50 (human GLP-1R [1]) [µM] | hGLP1R B-Arrestin2 % Top (human GLP-1R [1]) [%] | Ki (human GIP receptor) [nM] | EC50 (human GLP-1R [2]) [nM] | EC50 [3] [nM] | Ki (human Gcg receptor) [nM] | Ki (human GLP-1R [4]) [nM] | EC50 [5] [nM] |
| --- | --- | --- | --- | --- | --- | --- | --- | --- |
| CC[C@H](C)[C@H](NC(=O)[C@H](CC(C)C)NC(=O)[C@H](Cc1ccc(O)cc1)NC(=O)[C@H](CCC(=O)O)NC(=O)[C@@H](NC(=O)[C@H](Cc1ccccc1)NC(=O)[C@H](CCC(=O)O)NC(=O)C(C)(C)NC(=O)[C@H](CCC(N)=O)NC(=O)[C@H](C)NC(=O)[C@H](CCCCNC(=O)COCCOCCNC(=O)COCCOCCNC(=O)CC[C@H](NC(=O)CCCCCCCCCCCCCCCCCCC(=O)O)C(=O)O)NC(=O)[C@H](CCC(=O)O)NC(=O)[C@H](CC(=O)O)NC(=O)[C@H](CC(C)C)NC(=O)[C@](C)(CC(C)C)NC(=O)[C@@H](NC(=O)[C@H](CO)NC(=O)[C@H](Cc1ccc(O)cc1)NC(=O)[C@H](CC(=O)O)NC(=O)[C@H](CO)NC(=O)[C@@H](NC(=O)[C@H](Cc1ccccc1)NC(=O)[C@@H](NC(=O)CNC(=O)[C@H](CCC(=O)O)NC(=O)C(C)(C)NC(=O)[C@H](N)Cc1ccc(O)cc1)[C@@H](C)O)[C@@H](C)O)[C@@H](C)CC)[C@@H](C)CC)C(=O)N[C@@H](C)C(=O)NCC(=O)NCC(=O)N1CCC[C@H]1C(=O)N[C@@H](CO)C(=O)N[C@@H](CO)C(=O)NCC(=O)N[C@@H](C)C(=O)N1CCC[C@H]1C(=O)N1CCC[C@H]1C(=O)N1CCC[C@H]1C(=O)N[C@@H](CO)C(N)=O [Example 342] (H-[dY][Aib]EGTFTSDYSI[αMeL]LDEK([AEEA-AEEA-γGlu-C20 diacid])AQ[Aib]EFIEYLIAGGPSSGAPPPS-NH2; N-terminus assumed) | 0.035 | 20.7 | 0.129 | 0.414 | 0.159 | > 1000 | 15.4 | 0.127 |
| CC[C@H](C)[C@H](NC(=O)[C@H](CC(C)C)NC(=O)[C@H](Cc1ccc(O)cc1)NC(=O)[C@@H](CCC(=O)O)NC(=O)[C@@H](NC(=O)[C@H](Cc1ccccc1)NC(=O)[C@H](C)NC(=O)C(C)(C)NC(=O)[C@H](CCC(N)=O)NC(=O)[C@H](C)NC(=O)[C@H](CCCCNC(=O)COCCOCCNC(=O)COCCOCCNC(=O)CC[C@H](NC(=O)CCCCCCCCCCCCCCCCCCC(=O)O)C(=O)O)NC(=O)[C@H](CCC(=O)O)NC(=O)[C@H](CC(=O)O)NC(=O)[C@H](CC(C)C)NC(=O)[C@](C)(CC(C)C)NC(=O)[C@@H](NC(=O)[C@H](CO)NC(=O)[C@H](Cc1ccc(O)cc1)NC(=O)[C@H](CC(=O)O)NC(=O)[C@H](CO)NC(=O)[C@@H](NC(=O)[C@H](Cc1ccccc1)NC(=O)[C@@H](NC(=O)CNC(=O)[C@H](CCC(=O)O)NC(=O)C(C)(C)NC(=O)[C@@H](N)Cc1ccc(O)cc1)[C@@H](C)O)[C@@H](C)O)[C@@H](C)CC)[C@@H](C)CC)C(=O)N[C@@H](C)C(=O)NCC(=O)NCC(=O)N1CCC[C@H]1C(=O)N[C@@H](CO)C(=O)N[C@@H](CO)C(=O)NCC(=O)N[C@@H](C)C(=O)N1CCC[C@H]1C(=O)N1CCC[C@H]1C(=O)N1CCC[C@H]1C(=O)N[C@@H](CO)C(N)=O [Example 343] (H-Y[Aib]EGTFTSDYSI[αMeL]LDEK([AEEA-AEEA-γGlu-C20 diacid])AQ[Aib]AFI[dE]YLIAGGPSSGAPPPS-NH2) | 0.0455 | 41.4 | 0.0374 | 0.522 | 0.0422 | > 1070 | 13.3 | 0.124 |
| CC[C@H](C)[C@H](NC(=O)[C@H](CC(C)C)NC(=O)[C@H](Cc1ccc(O)cc1)NC(=O)[C@H](CCC(=O)O)NC(=O)[C@@H](NC(=O)[C@H](Cc1ccccc1)NC(=O)[C@H](CC(=O)O)NC(=O)C(C)(C)NC(=O)[C@H](CCC(N)=O)NC(=O)[C@H](C)NC(=O)[C@H](CCCCNC(=O)COCCOCCNC(=O)COCCOCCNC(=O)CC[C@H](NC(=O)CCCCCCCCCCCCCCCCCCC(=O)O)C(=O)O)NC(=O)[C@H](CCC(=O)O)NC(=O)[C@H](CC(=O)O)NC(=O)[C@H](CC(C)C)NC(=O)[C@](C)(CC(C)C)NC(=O)[C@@H](NC(=O)[C@H](CO)NC(=O)[C@H](Cc1ccc(O)cc1)NC(=O)[C@H](CC(=O)O)NC(=O)[C@H](CO)NC(=O)[C@@H](NC(=O)[C@H](Cc1ccccc1)NC(=O)[C@@H](NC(=O)CNC(=O)[C@H](CCC(=O)O)NC(=O)C(C)(C)NC(=O)[C@@H](N)Cc1ccc(O)cc1)[C@@H](C)O)[C@@H](C)O)[C@@H](C)CC)[C@@H](C)CC)C(=O)N[C@@H](C)C(=O)NCC(=O)NCC(=O)N1CCC[C@H]1C(=O)N[C@@H](CO)C(=O)N[C@@H](CO)C(=O)NCC(=O)N[C@@H](C)C(=O)N1CCC[C@H]1C(=O)N1CCC[C@H]1C(=O)N1CCC[C@H]1C(=O)N[C@@H](CO)C(N)=O [Example 344] (H-Y[Aib]EGTFTSDYSI[αMeL]LDEK([AEEA-AEEA-γGlu-C20 diacid])AQ[Aib]DFIEYLIAGGPSSGAPPPS-NH2) | 0.0343 | 46 | 0.0507 | 0.423 | 0.0433 | > 1080 | 14.8 | 0.044 |
| CC[C@H](C)[C@H](NC(=O)[C@H](CC(C)C)NC(=O)[C@H](Cc1ccc(O)cc1)NC(=O)[C@H](CCC(=O)O)NC(=O)[C@@H](NC(=O)[C@H](Cc1ccccc1)NC(=O)[C@H](C)NC(=O)C(C)(C)NC(=O)[C@H](CCC(N)=O)NC(=O)[C@H](C)NC(=O)[C@H](CCCCNC(=O)COCCOCCNC(=O)COCCOCCNC(=O)CC[C@H](NC(=O)CCCCCCCCCCCCCCCCCCC(=O)O)C(=O)O)NC(=O)[C@H](CCCN)NC(=O)[C@H](CC(=O)O)NC(=O)[C@H](CC(C)C)NC(=O)[C@](C)(CC(C)C)NC(=O)[C@@H](NC(=O)[C@H](CO)NC(=O)[C@H](Cc1ccc(O)cc1)NC(=O)[C@H](CC(=O)O)NC(=O)[C@H](CO)NC(=O)[C@@H](NC(=O)[C@H](Cc1ccccc1)NC(=O)[C@@H](NC(=O)CNC(=O)[C@H](CCC(=O)O)NC(=O)C(C)(C)NC(=O)[C@H](N)Cc1ccc(O)cc1)[C@@H](C)O)[C@@H](C)O)[C@@H](C)CC)[C@@H](C)CC)C(=O)N[C@@H](C)C(=O)NCC(=O)NCC(=O)N1CCC[C@H]1C(=O)N[C@@H](CO)C(=O)N[C@@H](CO)C(=O)NCC(=O)N[C@@H](C)C(=O)N1CCC[C@H]1C(=O)N1CCC[C@H]1C(=O)N1CCC[C@H]1C(=O)N[C@@H](CO)C(N)=O [Example 346] (H-[dY][Aib]EGTFTSDYSI[αMeL]LD[Orn]K([AEEA-AEEA-γGlu-C20 diacid])AQ[Aib]AFIEYLIAGGPSSGAPPPS-NH2) | 0.00325 | 19.3 | 0.0559 | 0.737 | 0.144 | 310 | 1.67 | 0.128 |
